Experimental data published in patent US20110178104A1, “Anti-Heparin Compounds” (POLYMEDIX INC., priority 2010, published 2011).
In brackets after ≈: the same amount, converted by molar mass. Several values for one entry are separate records, joined by “and”; a condition that tells them apart may be missing. Equal values may be shown once. Read-outs that look alike come from different tables or passages of the source. Starred links: 1 amine or outer side, 2 acyl side, 3 side chain; linkers in the order of their positions; H or OH if unused. Non-standard residues stand in square brackets, D forms with d. Residues, ends and D or L forms follow the SMILES beside them. *: point of attachment. NH(3-CONH2-4-OMe-phenyl) = COc1ccc(N*)cc1C(N)=O; 3Abz(6-OMe) = COc1ccc(N[*:1])cc1C(=O)[*:2]; X1 = O=C(O)COc1ccc(N[*:1])cc1C(=O)[*:2]

Columns and labels:
[1] = test system: Unfractionated heparin; test: aPTT clotting assay, UFH 0.4 U/mL in plasma (Example 10); type: biochemical
Experimental: aPTT clotting Assay: Unfractionated heparin was mixed with plasma at a final concentration of 0.4 U/mL (or concentration which increases aPTT time to between 120 and 300 seconds). […] The ACL Elite Hemostasis analyzer (Beckman Coulter™) was used to add aPTT reagent (HemosIL SynthASil) to supplemented plasma. Clotting was initiated by addition of CaCl2 and time to clot was recorded.

[2] = test system: enoxaparin; test: FXa amidolytic assay (Example 10), enoxaparin; conditions: read-out: Enox FXa EC50
Experimental: (§2) Two μl of test agent are added (range between 0.01 and 23 ug/ml) and incubated for 5 minutes at 23° C. Bovine Factor Xa was added to a final concentration of 0.636 nkat/mL and incubated for a further 10 minutes at 23° C.

[3] = test system: fondaparinux; test: FXa amidolytic assay (Example 10), fondaparinux; conditions: read-out: Fondap FXa EC50
Experimental: as §2

[4] = test system: isolated human erythrocytes; test: cells; type: cell-based; conditions: Homo sapiens, Erythrocyte, 1 h, read-out: Hemolysis EC50
Experimental: Hemolysis assay: Cytotoxicity was also evaluated in a hemolysis assay using isolated human erythrocytes. Pooled whole human blood was centrifuged to separate the red blood cells (RBC). The isolated RBCs were rinsed and diluted in Tris-buffered saline (TBS buffer, pH 7.4) to obtain a 0.22% RBC stock suspension. Serial two-fold dilutions of test agent were assayed over a concentration range of 1000 to 0.48 μg/ml with shaking for 1 hour at 37° C. At the conclusion of the incubation time, samples were centrifuged and 30 μl of the supernatant was added to 100 μl H2O. OD405 measurements were read for hemoglobin concentration. The bee venom peptide melittin was used as a positive control. EC50 values were determined using a four parameter logistic equation: Y=Bottom+(Top-Bottom)/(1+10̂((LogEC50-X)*HillSlope)).

[5] = Cytotoxicity colorimetric assay, HepG2; type: cell-based, human; conditions: human, HepG2 cells, one hour in serum-free media
Experimental: (§1) This assay measures the bioreduction of a novel tetrazolium compound to a soluble formazan product by viable cells. HepG2 cells were seeded in 96 well plates at 3×10^4 cells/well in MEM medium with 10% fetal bovine serum (FBS) 24 hours prior to use. NIH/3T3 cells were seeded in 96 well plates at 2×10^4 cells/well in DMEM medium with 10% bovine calf serum (BCS) 24 hours prior to use. Cell monolayers were rinsed in serum-free media and incubated for one hour with test agent in serum-free media. After incubation, the media was replaced with serum supplemented media and live cells were measured using the Cell Titer 96 Aqueous […] Assay kit (Promega, Madison, Wis.). EC50 values were determined using a four parameter logistic equation: Y=Bottom+(Top-Bottom)/(1+10̂((LogEC50-X)*HillSlope)).

[6] = test system: tinzaparin; test: FXa amidolytic assay (Example 10), tinzaparin; conditions: read-out: Tinzap FXa EC50
Experimental: as §2

[7] = test system: UFH; test: FXa amidolytic assay (Example 10), UFH; conditions: read-out: Heparin FXa uM EC50
Experimental: as §2

[8] = Cytotoxicity colorimetric assay, NIH/3T3; type: cell-based, mouse; conditions: mouse, NIH/3T3 cells, one hour in serum-free media
Experimental: as §1

[9] = unfractionated heparin 0.4 U/mL in plasma, aPTT clotting
[10] = enoxaparin 0.1 ug/ml, human antithrombin, bovine Factor Xa
[11] = fondaparinux 0.02 μg/mL, human antithrombin, bovine Factor Xa
[12] = tinzaparin 0.1 ug/ml, human antithrombin, bovine Factor Xa
[13] = UFH 0.03 units/mL, human antithrombin, bovine Factor Xa

Row | Compound | EC50 [1, 9] | EC50 [2, 10] | EC50 [3, 11] | EC50 ([4]; human RBC, 1 hour at 37° C.) | EC50 at 1 h [5] | EC50 [6, 12] | EC50 [7, 13] | EC50 at 1 h [8] | EC50 [4] | EC50 [1] | EC50 [2] | EC50 [3] | EC50 [7] | EC50 [6]
1 | COc1ccc(NC(=O)[C@@H](CCCNC(=N)N)NC(=O)c2cc(NC(=O)[C@@H](CCCNC(=N)N)NC(=O)c3cc(NC(=O)[C@@H](CCCNC(=N)N)NC(=O)c4cc(NC(C)=O)ccc4OC)ccc3OC)ccc2OC)cc1C(N)=O [Compound 229] | 1850 nM and 2270 nM | 215 nM and 207 nM | 587 nM and 322 nM | ~500 µg/mL (≈ 445 µM) | > 1000 µg/mL | 167 nM and 164 nM | – | – | – | – | – | – | – | –
2 | COc1ccc(NC(=O)[C@@H](CCCNC(N)=O)NC(=O)c2cc(NC(=O)[C@@H](CCCNC(N)=O)NC(=O)c3cc(NC(=O)[C@@H](CCCNC(=N)N)NC(=O)c4cc(NC(C)=O)ccc4OC)ccc3OC)ccc2OCC(=O)O)cc1C(=O)N[C@H](Cc1c[nH]c2ccccc12)C(N)=O [Compound 333] | > 10000 nM | > 5000 nM | > 5000 nM | 1000 µg/mL (≈ 737 µM) | – | > 5000 nM | > 5 µM | – | – | – | – | – | – | –
3 | COc1ccc(NC(=O)[C@H](CCCCN)NC(=O)c2cc(NC(=O)[C@H](CCCCN)NC(=O)c3cc(NC(=O)[C@H](CCCCN)NC(=O)c4cc(NC(=O)[C@@H](N)CCCCN)ccc4OC)ccc3OC)ccc2OC)cc1C(=O)O [Compound 250] | 2730 nM | 3280 nM | > 10000 nM | – | > 1000 µg/mL | 1290 nM | – | > 1000 µg/mL | – | – | – | – | – | –
4 | COc1ccc(NC(=O)[C@H](CCCNC(=N)N)NC(=O)c2cc(NC(=O)[C@H](CCCNC(=N)N)NC(=O)c3cc(NC(=O)[C@H](CCCNC(=N)N)NC(=O)c4cc(NC(C)=O)ccc4OC)ccc3OC)ccc2OC)cc1C(=O)N[C@@H](Cc1c[nH]c2ccccc12)C(=O)O [Compound 310] | > 10000 nM | 119 nM | 98 nM | ~1000 µg/mL (≈ 763 µM) | – | 141 nM | 0.242 µM | – | – | – | – | – | – | –
5 | COc1ccc(NC(=O)[C@H](CCCCN)NC(=O)c2cc(NC(=O)[C@H](CCCCN)NC(=O)c3cc(NC(=O)[C@H](CCCCN)NC(=O)c4cc(NC(=O)[C@H](CCCCN)NC(=O)[C@@H](N)Cc5ccccc5)ccc4OC)ccc3OC)ccc2OCC(=O)O)cc1C(N)=O [Compound 358] (H-FK[3Abz(6-OMe)]K[3Abz(6-OMe)]K[X1]K-{NH(3-CONH2-4-OMe-phenyl)}) | 1930 nM | 324 nM | 1600 nM | > 1000 µg/mL | – | 184 nM | 0.314 µM | – | – | – | – | – | – | –
6 | COc1ccc(NC(=O)[C@@H](CCCNC(N)=O)NC(=O)c2cc(NC(=O)[C@@H](CCCNC(=N)N)NC(=O)c3cc(NC(=O)[C@@H](CCCNC(=N)N)NC(=O)c4cc(NC(C)=O)ccc4OC)ccc3OC)ccc2OCC(=O)O)cc1C(=O)N[C@H](Cc1c[nH]c2ccccc12)C(N)=O [Compound 332] | > 10000 nM | > 5000 nM | > 5000 nM | 1000 µg/mL (≈ 738 µM) | – | > 5000 nM | > 5 µM | – | – | – | – | – | – | –
7 | COc1ccc(NC(=O)[C@H](CCCCN)NC(=O)c2cc(NC(=O)[C@H](CCCCN)NC(=O)c3cc(NC(=O)[C@H](CCCCN)NC(=O)c4cc(NC(=O)[C@H](CCCCN)NC(=O)Cc5ccccc5)ccc4OC)ccc3OC)ccc2OCC(=O)O)cc1C(N)=O [Compound 356] | 1890 nM | 127 nM | 512 nM | – | – | 100 nM | 0.204 µM | – | > 1000 µg/mL | – | – | – | – | –
8 | COc1ccc(NC(=O)[C@@H](CCCNC(N)=O)NC(=O)c2cc(NC(=O)[C@@H](CCCNC(=N)N)NC(=O)c3cc(NC(=O)[C@@H](CCCNC(=N)N)NC(=O)c4cc(NC(=O)[C@H](N)CCCNC(N)=O)ccc4OC)ccc3OC)ccc2OC)cc1C(N)=O [Compound 377] | – | – | – | – | – | – | – | – | – | 2090 nM | 149 nM | 1440 nM | 0.66 µM | 92 nM
9 | COc1ccc(NC(=O)[C@@H](CCCNC(N)=O)NC(=O)c2cc(NC(=O)[C@@H](CCCNC(=N)N)NC(=O)c3cc(NC(=O)[C@@H](CCCNC(N)=O)NC(=O)c4cc(NC(=O)[C@H](N)CCCNC(N)=O)ccc4OC)ccc3OC)ccc2OC)cc1C(N)=O [Compound 371] | 3260 nM | 252 nM | > 10000 nM | – | – | 197 nM | > 10 µM | – | – | – | – | – | – | –
10 | COc1cc(OC)c(C(=O)N2CCC(NC(=O)c3cc(C(=O)NC4CCN(C(=O)c5cc(C(=O)NCCN)c(OC)cc5OC)CC4)c(OC)cc3OC)CC2)cc1C(=O)NCCN [Compound 384] | > 10000 nM | > 5000 nM | > 10000 nM | – | – | > 5000 nM | > 20 µM | – | – | – | – | – | – | –
11 | COc1ccc(NC(=O)[C@@H](CCCNC(=N)N)NC(=O)c2cc(NC(=O)[C@@H](CCCNC(=N)N)NC(=O)c3cc(NC(=O)[C@@H](CCCNC(N)=O)NC(=O)c4cc(NC(=O)[C@H](N)CCCNC(N)=O)ccc4OC)ccc3OC)ccc2OC)cc1C(N)=O [Compound 374] | 2420 nM | 157 nM | 1820 nM | – | – | 114 nM | 0.677 µM | – | – | – | – | – | – | –
12 | COc1cc(OC)c(C(=O)N[C@H]2CC[C@@H](NC(=O)c3cc(C(=O)N[C@H]4CC[C@@H](N)CC4)c(OC)cc3OC)CC2)cc1C(=O)NCCN [Compound 383] | > 10000 nM | > 5000 nM | > 10000 nM | – | – | > 5000 nM | > 20 µM | – | – | – | – | – | – | –
13 | COc1ccc(NC(=O)[C@@H](CCCNC(=N)N)NC(=O)c2cc(NC(=O)[C@@H](CCCNC(=N)N)NC(=O)c3cc(NC(=O)[C@@H](CCCNC(=N)N)NC(=O)c4cc(NC(C)=O)ccc4OC)ccc3OC)ccc2OCC(=O)O)cc1C(=O)N[C@H](Cc1c[nH]c2ccccc12)C(=O)O [Compound 306] | > 10000 nM | 198 nM and 338 nM | – | ~1000 µg/mL (≈ 738 µM) | ~1000 µg/mL (≈ 738 µM) | 199 nM and 367 nM | 0.236 µM | – | – | – | – | – | – | –
14 | NCCCC[C@H](NC(=O)c1cccc(NC(=O)[C@H](CCCCN)NC(=O)c2cccc(NC(=O)[C@H](CCCCN)NC(=O)c3cccc(NC(=O)[C@@H](N)CCCCN)c3)c2)c1)C(=O)Nc1cccc(C(N)=O)c1 [Compound 368] | 9250 nM | 11000 nM | > 10000 nM | – | – | 3390 nM | 3.69 µM | – | – | – | – | – | – | –
15 | COc1cc(OC)c(C(=O)N[C@H]2CC[C@@H](NC(=O)c3cc(C(=O)NCCN)c(OCCCCCN)cc3OCCCCCN)CC2)cc1C(=O)N[C@H]1CC[C@@H](NC(=O)c2cc(C(=O)NCCN)c(OCCCCCN)cc2OCCCCCN)CC1 [Compound 367] | 1270 nM | 42 nM | 514 nM | – | – | 106 nM | 0.085 µM | – | – | – | – | – | – | –
16 | COc1cc(OC)c(C(=O)N[C@H]2CC[C@@H](NC(=O)c3cc(C(=O)N[C@H]4CC[C@@H](N=C(N(C)C)N(C)C)CC4)c(OC)cc3OC)CC2)cc1C(=O)NCCN [Compound 382] | > 10000 nM | > 5000 nM | > 10000 nM | – | – | > 5000 nM | > 20 µM | – | – | – | – | – | – | –
17 | COc1ccc(NC(=O)[C@H](CCCCN)NC(=O)c2cc(NC(=O)[C@H](CCCCN)NC(=O)c3cc(NC(=O)[C@H](CCCCN)NC(=O)c4cc(NC(=O)[C@H](CCCCN)NC(=O)[C@@H](N)Cc5c[nH]c6ccccc56)ccc4OC)ccc3OC)ccc2OC)cc1C(N)=O [Compound 351] (H-WK[3Abz(6-OMe)]K[3Abz(6-OMe)]K[3Abz(6-OMe)]K-{NH(3-CONH2-4-OMe-phenyl)}) | 1930 nM | 214 nM | 1110 nM | > 1000 µg/mL | – | 114 nM | 0.194 µM | – | – | – | – | – | – | –
18 | COc1ccc(NC(=O)[C@H](CCCCN)NC(=O)c2cc(NC(=O)[C@H](CCCCN)NC(=O)c3cc(NC(=O)[C@H](CCCCN)NC(=O)c4cc(NC(=O)[C@H](CCCCN)NC(=O)[C@@H](N)Cc5ccccc5)ccc4OC)ccc3OC)ccc2OC)cc1C(N)=O [Compound 357] (H-FK[3Abz(6-OMe)]K[3Abz(6-OMe)]K[3Abz(6-OMe)]K-{NH(3-CONH2-4-OMe-phenyl)}) | 1420 nM | 248 nM | 2220 nM | > 1000 µg/mL | – | 118 nM | 0.187 µM | – | – | – | – | – | – | –
